Measured values reported in ChEMBL document CHEMBL6083286, “Discovery of ERD-12310A as an Exceptionally Potent and Orally Efficacious PROTAC Degrader of Estrogen Receptor α (ERα)” (J Med Chem, 2024).
Activity calls are given as the source filed them. No cut-off for these calls is given here.

Key:
[1] = Metabolic stability mouse liver microsome assessed as half life; type: ADME; settings: microsomes
[2] = Metabolic stability rat liver microsome assessed as half life; type: ADME; settings: microsomes
[3] = molecular target: T1, Protein cereblon/Estrogen receptor (Homo sapiens, UniProt P03372+Q96SW2); assay: PROTAC activity at CRBN/ERalpha in human MCF7 cells assessed as reduction in ERalpha protein level measured after 12 hrs by Western blot analysis; type: cell-based
Target sequence in this assay (P03372 whole entry): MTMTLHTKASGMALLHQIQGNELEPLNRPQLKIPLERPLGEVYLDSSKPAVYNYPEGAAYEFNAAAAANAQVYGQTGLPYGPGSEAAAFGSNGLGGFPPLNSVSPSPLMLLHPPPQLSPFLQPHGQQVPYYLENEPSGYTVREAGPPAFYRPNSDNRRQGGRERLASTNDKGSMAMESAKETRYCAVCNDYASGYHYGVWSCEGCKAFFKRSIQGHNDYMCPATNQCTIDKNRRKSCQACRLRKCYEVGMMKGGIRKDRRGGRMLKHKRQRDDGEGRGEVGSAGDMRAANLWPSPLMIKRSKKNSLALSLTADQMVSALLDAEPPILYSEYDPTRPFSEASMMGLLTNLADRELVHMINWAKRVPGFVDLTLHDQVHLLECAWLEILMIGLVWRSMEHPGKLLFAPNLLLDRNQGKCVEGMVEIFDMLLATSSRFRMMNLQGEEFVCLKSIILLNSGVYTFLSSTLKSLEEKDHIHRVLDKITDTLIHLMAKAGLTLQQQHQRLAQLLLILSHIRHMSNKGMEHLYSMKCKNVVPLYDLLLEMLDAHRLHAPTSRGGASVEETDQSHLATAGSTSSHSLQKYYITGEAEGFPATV
Target sequence in this assay (Q96SW2 whole entry): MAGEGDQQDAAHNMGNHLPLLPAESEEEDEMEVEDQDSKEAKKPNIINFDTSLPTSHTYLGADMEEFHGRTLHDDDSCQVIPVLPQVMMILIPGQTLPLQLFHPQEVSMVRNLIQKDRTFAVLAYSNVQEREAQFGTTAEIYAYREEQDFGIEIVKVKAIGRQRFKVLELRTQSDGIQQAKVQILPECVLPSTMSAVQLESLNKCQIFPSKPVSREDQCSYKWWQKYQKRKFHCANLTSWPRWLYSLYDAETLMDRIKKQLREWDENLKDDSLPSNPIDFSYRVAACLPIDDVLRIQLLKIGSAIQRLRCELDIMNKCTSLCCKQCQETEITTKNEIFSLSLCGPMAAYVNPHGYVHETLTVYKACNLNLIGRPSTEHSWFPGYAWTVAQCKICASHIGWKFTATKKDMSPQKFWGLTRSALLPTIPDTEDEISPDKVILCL

[4] = molecular target: T1, Protein cereblon/Estrogen receptor; assay: PROTAC activity at CRBN/ERalpha in human MCF7 cells assessed as reduction in ERalpha protein level measured after 12 hrs by Western blot analysis relative to control; type: cell-based
Target sequence in this assay (P03372 whole entry, looked up): as the sequence (P03372 whole entry) above
Target sequence in this assay (Q96SW2 whole entry, looked up): as the sequence (Q96SW2 whole entry) above

[5] = Drug concentration in female Sprague-Dawley rat plasma at 3 mg/kg, po measured at 1 hr by LC-MS analysis; type: ADME, organism-based
[6] = Drug concentration in female Sprague-Dawley rat plasma at 3 mg/kg, po measured at 3 hrs by LC-MS analysis; type: ADME, organism-based
[7] = Drug concentration in female Sprague-Dawley rat plasma at 3 mg/kg, po measured at 6 hrs by LC-MS analysis; type: ADME, organism-based
[8] = Drug concentration in female Sprague-Dawley rat plasma at 3 mg/kg, po measured at 24 hrs by LC-MS analysis; type: ADME, organism-based
[9] = Metabolic stability human liver microsome assessed as half life; type: ADME; settings: microsomes
[10] = molecular target: T1, Protein cereblon/Estrogen receptor; assay: PROTAC activity at CRBN/ERalpha in human MCF7 cells assessed as effect on GSPT1 level at 100 nM measured for 5 hrs by Western blot analysis; type: cell-based
Target sequence in this assay (P03372 whole entry, looked up): as the sequence (P03372 whole entry) above
Target sequence in this assay (Q96SW2 whole entry, looked up): as the sequence (Q96SW2 whole entry) above

Activity [10] | Compound | t1/2 [1] | t1/2 [2] | DC50 [3] | Emax [4] | concentration at 1 h [5] | concentration at 3 h [6] | concentration at 6 h [7] | concentration at 24 h [8] | t1/2 [9]
 | O=C1CC[C@H](N2Cc3c(ccc4c3OCC43CCN(CC(=O)N4CC5(CCN(c6ccc([C@@H]7c8ccc(O)cc8CC[C@@H]7c7ccccc7)cc6)CC5)C4)CC3)C2=O)C(=O)N1 | 35 min | 49 min | 0.0341 nM | 102% | 9 ng/mL | < 5 ng/mL | < 5 ng/mL | < 5 ng/mL | > 60 min
Active | O=C1CCC(N2Cc3c(CCCCCNC(=O)[C@@H]4NC5(CCCCC5)[C@@]5(C(=O)Nc6cc(Cl)ccc65)[C@H]4c4cccc(Cl)c4F)cccc3C2=O)C(=O)N1 (stereo not given in full) |  |  |  |  |  |  |  |  | 
